Source: ChEMBL document CHEMBL1201862, “PubChem BioAssay data set” (2004)
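In this assay, cells in 96-well plates receive the compound at five concentrations for 48 hours. Endpoints are linearly interpolated between the surrounding concentrations. At the GI50, growth is halved.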 Calls of active or inactive are those of the source. Cut-off read from the data, not from the text of the source: active = GI50 up to about 1.1 µM and inactive = higher. Where a SMILES comes first, the peptide text is derived from it. [ ]: non-standard residue; d: D form. The star is where a group is joined. Cbz = O=C(OCc1ccccc1)*; Aib = CC(C)(N)C(=O)O; OBn = c1ccc(CO*)cc1

Tests used:
Experiment in all cases: inhibition of tumour cell growth, NCI panel, 48 h
[1] = tested on: 786-0
[2] = tested on: CAKI-1
[3] = tested on: COLO 205
[4] = tested on: DU-145
[5] = tested on: HCT-15
[6] = tested on: HL-60
[7] = tested on: HOP-62
[8] = tested on: HOP-92
[9] = tested on: HT-29
[10] = tested on: IGROV-1
[11] = tested on: K562
[12] = tested on: KM12
[13] = tested on: LOX IMVI
[14] = tested on: MDA-N
[15] = tested on: NCI-H226
[16] = tested on: NCI-H23
[17] = tested on: NCI/ADR-RES
[18] = tested on: SF-268
[19] = tested on: SK-MEL-28
[20] = tested on: SNB-19

Compound: O=C(NO)c1ccc(OCc2cccc(Cl)c2)cc1
- GI50 [1]: 6.11 µM (inactive)
- GI50 [2]: 6.65 µM (inactive)
- GI50 [3]: 7.35 µM (inactive)
- GI50 [4]: 7.59 µM (inactive)
- GI50 [5]: 4.57 µM
- GI50 [6]: 2.47 µM (inactive)
- GI50 [7]: 9.1 µM (inactive)
- GI50 [8]: 11.9 µM (inactive)
- GI50 [9]: 8.45 µM (inactive)
- GI50 [10]: 6.67 µM (inactive)
- GI50 [11]: 7.96 µM (inactive)
- GI50 [12]: 11.9 µM (inactive)
- GI50 [13]: 5.07 µM (inactive)
- GI50 [14]: 10.1 µM (inactive)
- GI50 [15]: 11.9 µM (inactive)
- GI50 [16]: 5.3 µM (inactive)
- GI50 [17]: 2.13 µM (inactive)
- GI50 [18]: 10.7 µM (inactive)
- GI50 [19]: 12.3 µM (inactive)
- GI50 [20]: 24.5 µM (inactive)

Compound: CCOC(=O)c1sc2nc(SC)nc(Nc3ccc4c(c3)OCCCO4)c2c1N
- GI50 [1]: 19.3 µM (inactive)
- GI50 [2]: > 100 µM (inactive)
- GI50 [3]: 41.5 µM (inactive)
- GI50 [4]: 31.8 µM (inactive)
- GI50 [5]: 10.9 µM
- GI50 [6]: > 100 µM (inactive)
- GI50 [7]: 20.1 µM (inactive)
- GI50 [8]: 61.1 µM (inactive)
- GI50 [9]: 32.8 µM (inactive)
- GI50 [10]: > 100 µM (inactive)
- GI50 [11]: 9.04 µM (inactive)
- GI50 [12]: 24.2 µM (inactive)
- GI50 [13]: 34.8 µM (inactive)
- GI50 [14]: 20.5 µM (inactive)
- GI50 [15]: 42.2 µM (inactive)
- GI50 [16]: 5.92 µM (inactive)
- GI50 [17]: 8.93 µM (inactive)
- GI50 [18]: 20.8 µM (inactive)
- GI50 [19]: > 100 µM (inactive)
- GI50 [20]: > 100 µM (inactive)

Compound: CC(C)(C)OC(=O)NC(Cc1ccc(OCc2ccccc2)cn1)C(=O)O (stereo not given)
- GI50 [1]: > 100 µM (inactive)
- GI50 [2]: > 100 µM (inactive)
- GI50 [3]: > 100 µM (inactive)
- GI50 [4]: > 100 µM (inactive)
- GI50 [5]: > 100 µM
- GI50 [6]: > 100 µM (inactive)
- GI50 [7]: > 100 µM (inactive)
- GI50 [8]: > 100 µM (inactive)
- GI50 [9]: > 100 µM (inactive)
- GI50 [10]: > 100 µM (inactive)
- GI50 [11]: > 100 µM (inactive)
- GI50 [12]: > 100 µM (inactive)
- GI50 [13]: > 100 µM (inactive)
- GI50 [14]: > 100 µM (inactive)
- GI50 [15]: > 100 µM (inactive)
- GI50 [16]: > 100 µM (inactive)
- GI50 [17]: > 100 µM (inactive)
- GI50 [18]: > 100 µM (inactive)
- GI50 [19]: > 100 µM (inactive)
- GI50 [20]: > 100 µM (inactive)

Compound: CCOC(CBr)OC1C(=O)OCC1(C)C (stereo not given)
- GI50 [1]: > 100 µM (inactive)
- GI50 [2]: > 100 µM (inactive)
- GI50 [3]: > 100 µM (inactive)
- GI50 [4]: > 100 µM (inactive)
- GI50 [5]: > 100 µM
- GI50 [6]: > 100 µM (inactive)
- GI50 [7]: > 100 µM (inactive)
- GI50 [8]: > 100 µM (inactive)
- GI50 [9]: > 100 µM (inactive)
- GI50 [10]: > 100 µM (inactive)
- GI50 [11]: > 100 µM (inactive)
- GI50 [12]: > 100 µM (inactive)
- GI50 [13]: > 100 µM (inactive)
- GI50 [14]: > 100 µM (inactive)
- GI50 [15]: > 100 µM (inactive)
- GI50 [16]: > 100 µM (inactive)
- GI50 [17]: > 100 µM (inactive)
- GI50 [18]: > 100 µM (inactive)
- GI50 [19]: > 100 µM (inactive)
- GI50 [20]: > 100 µM (inactive)

Compound: CC(NC(=O)C(C)(C)NC(=O)C(CC(=O)OCc1ccccc1)NC(=O)OCc1ccccc1)C(N)=O (stereo not given) (Cbz-Asp(OBn)-[Aib]-Ala-NH2; configuration not given here)
- GI50 [1]: > 100 µM (inactive)
- GI50 [2]: > 100 µM (inactive)
- GI50 [3]: > 100 µM (inactive)
- GI50 [4]: > 100 µM (inactive)
- GI50 [5]: > 100 µM
- GI50 [6]: > 100 µM (inactive)
- GI50 [7]: > 100 µM (inactive)
- GI50 [8]: > 100 µM (inactive)
- GI50 [9]: > 100 µM (inactive)
- GI50 [10]: > 100 µM (inactive)
- GI50 [11]: > 100 µM (inactive)
- GI50 [12]: > 100 µM (inactive)
- GI50 [13]: > 100 µM (inactive)
- GI50 [14]: > 100 µM (inactive)
- GI50 [15]: > 100 µM (inactive)
- GI50 [16]: > 100 µM (inactive)
- GI50 [17]: > 100 µM (inactive)
- GI50 [18]: > 100 µM (inactive)
- GI50 [19]: > 100 µM (inactive)
- GI50 [20]: > 100 µM (inactive)
